In US20260200926A1, “TREM2 MODULATORS” (Muna Therapeutics ApS, priority 2022, published 2026):
Read-outs that look alike come from different tables or passages of the source.

Target: T1, Human TREM2 (Homo sapiens, UniProt Q9NZC2)
T1 construct: expressed in transfected cells
Assay: Human TREM2 activity: cellular phosphorylation of Syk (AlphaLISA SureFire Ultra p-SYK) in HEK293/DAP12+TREM2 stable cell line
Type: cell-based
Settings: for Emax: HEK293; for EC50: phospho-Syk AlphaLISA signal, HEK293/DAP12+TREM2 cells, concentration giving 50% of maximal response, read-out: EC50
Procedure, shortened: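 HEK293 cells stably co-expressing human TREM2 and DAP12 were seeded at 10,000 cells/well and used 20–24 h later. Compounds were tested at 8 concentrations (top 100 μM, 1:6 steps, 0.5% DMSO) for 30 min at 37 °C. Syk phosphorylation at Tyr525/526 was read in lysates by AlphaLISA SureFire Ultra.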

[1] = maximal response relative to reference agonist example 1B (remaining examples), read-out: Emax

T1 sequence (Q9NZC2 19-230): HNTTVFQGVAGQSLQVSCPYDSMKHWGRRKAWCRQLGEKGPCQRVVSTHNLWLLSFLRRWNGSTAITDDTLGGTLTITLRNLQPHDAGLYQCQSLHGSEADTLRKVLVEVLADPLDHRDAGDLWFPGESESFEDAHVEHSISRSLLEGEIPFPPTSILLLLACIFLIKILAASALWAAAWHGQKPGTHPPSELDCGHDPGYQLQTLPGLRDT
T1 sequence (O43914 22-113 partner): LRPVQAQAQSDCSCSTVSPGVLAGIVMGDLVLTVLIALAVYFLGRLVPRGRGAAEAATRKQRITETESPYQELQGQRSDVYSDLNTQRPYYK

SMILES	Emax [1] [%]	EC50 [nM]	Emax [%]
Cc1nc2c(-c3ccc(C(F)(F)F)cc3F)nc(N3CCO[C@H](c4cnn(C)c4)C3)cc2c(=O)n1C (single isomer, unassigned) [Example 126B]	< 75	100 to 1000	
Cc1nc2c(-c3ccc(C(F)(F)F)nc3)nc(N3CCO[C@@H](c4cnn(C)c4)C3)cc2c(=O)n1C (single isomer, unassigned) [Example 127A]	< 75	100 to 1000	
Cc1nc2c(-c3ccc(C(F)(F)F)nc3)nc(N3CCO[C@H](c4cnn(C)c4)C3)cc2c(=O)n1C (single isomer, unassigned) [Example 127B]	< 75	> 1000	
Cc1cc([C@H]2CN(c3cc4c(=O)n(C)c(C)nc4c(-c4ccc(Cl)cc4F)n3)CC3(CC3)O2)ccn1 (single isomer, unassigned) [Example 128B]	75 to 110	100 to 1000	
Cc1nc2c(-c3ccc(F)cc3F)nc(N3CCO[C@@H](c4cnn(C)c4)C3)cc2c(=O)n1C (single isomer, unassigned) [Example 129A]	75 to 110	10 to 100	
Cc1nc2c(-c3ccc(F)cc3F)nc(N3CCO[C@H](c4cnn(C)c4)C3)cc2c(=O)n1C (single isomer, unassigned) [Example 129B]	< 75	10 to 100	
Cc1nc2c(-c3cc(F)c(F)cc3F)nc(N3CCO[C@@H](c4cnn(C)c4)C3)cc2c(=O)n1C (single isomer, unassigned) [Example 130A]	< 75	10 to 100	
Cc1nc2c(-c3cc(F)c(F)cc3F)nc(N3CCO[C@H](c4cnn(C)c4)C3)cc2c(=O)n1C (single isomer, unassigned) [Example 130B]	< 75	100 to 1000	
Cc1nc2c(-c3ccc(Cl)cc3F)nc(N3CCO[C@H](c4cnn(C5CC5)c4)C3)cc2c(=O)n1C (single isomer, unassigned) [Example 131A]	75 to 110	1 to 10	
Cc1nc2c(-c3ccc(Cl)cc3F)nc(N3CCO[C@@H](c4cnn(C5CC5)c4)C3)cc2c(=O)n1C (single isomer, unassigned) [Example 131B]	< 75	100 to 1000	
Cc1nc2c(-c3ccc(C(F)(F)F)cc3F)nc(N3CCO[C@H](c4cnn(C5CC5)c4)C3)cc2c(=O)n1C (single isomer, unassigned) [Example 132A]	75 to 110	1 to 10	
Cc1nc2c(-c3ccc(C(F)(F)F)cc3F)nc(N3CCO[C@@H](c4cnn(C5CC5)c4)C3)cc2c(=O)n1C (single isomer, unassigned) [Example 132B]	< 75	100 to 1000	
Cc1nc2c(-c3cc(F)c(F)cc3F)nc(N3CCO[C@H](c4cnn(C5CC5)c4)C3)cc2c(=O)n1C (single isomer, unassigned) [Example 133A]	75 to 110	10 to 100	
Cc1nc2c(-c3cc(F)c(F)cc3F)nc(N3CCO[C@@H](c4cnn(C5CC5)c4)C3)cc2c(=O)n1C (single isomer, unassigned) [Example 133B]	< 75	100 to 1000	
Cc1nc2c(-c3ccc(C(F)(F)F)cc3F)nc(N3C[C@@H](c4cnn(C)c4)OC(C)(C)C3)cc2c(=O)n1C (single isomer, unassigned) [Example 134A]	75 to 110	10 to 100	
Cc1nc2c(-c3ccc(C(F)(F)F)cc3F)nc(N3C[C@H](c4cnn(C)c4)OC(C)(C)C3)cc2c(=O)n1C (single isomer, unassigned) [Example 134B]	< 75	100 to 1000	
Cc1cc([C@@H]2CN(c3cc4c(=O)n(C)c(C)nc4c(-c4ccc(Cl)cc4F)n3)CCO2)ccn1 (single isomer, unassigned) [Example 135A]	75 to 110	1 to 10	

SMILES	Emax [1] [%]	EC50 [nM]	Emax [%]
Cc1cc([C@H]2CN(c3cc4c(=O)n(C)c(C)nc4c(-c4ccc(Cl)cc4F)n3)CCO2)ccn1 (single isomer, unassigned) [Example 135B]	75 to 110	100 to 1000	
Cc1cc([C@@H]2CN(c3cc4c(=O)n(C)c(C)nc4c(-c4ccc(F)cc4F)n3)CCO2)ccn1 (single isomer, unassigned) [Example 136A]	75 to 110	1 to 10	
Cc1cc([C@H]2CN(c3cc4c(=O)n(C)c(C)nc4c(-c4ccc(F)cc4F)n3)CCO2)ccn1 (single isomer, unassigned) [Example 136B]	< 75	100 to 1000	
Cc1cc([C@@H]2CN(c3cc4c(=O)n(C)c(C)nc4c(-c4ccc(C(F)(F)F)cc4F)n3)CCO2)ccn1 (single isomer, unassigned) [Example 137A]	75 to 110	1 to 10	
Cc1cc([C@H]2CN(c3cc4c(=O)n(C)c(C)nc4c(-c4ccc(C(F)(F)F)cc4F)n3)CCO2)ccn1 (single isomer, unassigned) [Example 137B]	75 to 110	100 to 1000	
Cc1cc([C@@H]2CN(c3cc4c(=O)n(C)c(C)nc4c(-c4ccc(C(F)(F)F)nc4)n3)CCO2)ccn1 (single isomer, unassigned) [Example 138A]	> 110	10 to 100	
Cc1cc([C@H]2CN(c3cc4c(=O)n(C)c(C)nc4c(-c4ccc(C(F)(F)F)nc4)n3)CCO2)ccn1 (single isomer, unassigned) [Example 138B]	< 75	100 to 1000	
Cc1nc2c(-c3cc(F)c(F)cc3F)nc([C@@H]3CCO[C@H](c4cnn(C5CC5)c4)C3)cc2c(=O)n1C (single isomer, unassigned) [Example 139A]	75 to 110	10 to 100	
Cc1nc2c(-c3cc(F)c(F)cc3F)nc([C@H]3CCO[C@@H](c4cnn(C5CC5)c4)C3)cc2c(=O)n1C (single isomer, unassigned) [Example 139B]	< 75	100 to 1000	
Cc1nc2c(-c3ccc(Cl)cc3F)nc([C@@H]3CCO[C@H](c4cnn(C5CC5)c4)C3)cc2c(=O)n1C (single isomer, unassigned) [Example 140A]		100 to 1000	< 75
Cc1nc2c(-c3ccc(Cl)cc3F)nc([C@H]3CCO[C@@H](c4cnn(C5CC5)c4)C3)cc2c(=O)n1C (single isomer, unassigned) [Example 140B]		10 to 100	75 to 110
Cc1cc([C@@H]2CN(c3cc4c(=O)n(C)c(C)nc4c(-c4cc(F)c(F)cc4F)n3)CCO2)ccn1 (single isomer, unassigned) [Example 141A]	75 to 110	10 to 100	
Cc1cc([C@H]2CN(c3cc4c(=O)n(C)c(C)nc4c(-c4cc(F)c(F)cc4F)n3)CCO2)ccn1 (single isomer, unassigned) [Example 141B]	75 to 110	10 to 100	
Cc1nc2c(-c3ccc(Cl)cc3F)cc(N3C[C@@H](c4cnn(C)c4)OC(C)(C)C3)nc2c(=O)n1C (single isomer, unassigned) [Example 142A]	< 75	100 to 1000	
Cc1nc2c(-c3ccc(Cl)cc3F)cc(N3C[C@H](c4cnn(C)c4)OC(C)(C)C3)nc2c(=O)n1C (single isomer, unassigned) [Example 142B]	75 to 110	10 to 100	
Cc1nc2c(-c3ccc(C(F)(F)F)cc3F)nc(N3C[C@@H](c4cnn(C)c4)OC4(CCC4)C3)cc2c(=O)n1C (single isomer, unassigned) [Example 143A]	75 to 110	1 to 10	
Cc1nc2c(-c3ccc(C(F)(F)F)cc3F)nc(N3C[C@H](c4cnn(C)c4)OC4(CCC4)C3)cc2c(=O)n1C (single isomer, unassigned) [Example 143B]	< 75	100 to 1000	
